# Measurements as given in US20240245694A1, “Tricyclic Compounds and their Uses” (Novartis AG, priority 2022, published 2024).
# Assay: Storage stability of the solid at RT
# Assay type: physicochemical
# Settings: stored at RT under ambient atmosphere for several months; degradation product Example 25
# From the text: 2.60 g (3.51 mmol) of Example 21A (7R,9R)—N-(2-chloro-4-(trifluoromethyl)phenyl)-2-(3,6-dihydro-2H-pyran-4-yl)-6-((1S,6S)-5-(5-hydroxy-6-methylpyrimidine-4-carbonyl)-2,5-diazabicyclo[4.2.0]octan-2-yl)-7-methyl-5-oxo-5,7,8,9-tetrahydropyrrolo[1,2-c][1,2,4]triazolo[1,5-a]pyrimidine-9-carboxamide was stored at RT under ambient atmosphere for several months, by which the purity decreased to 86%. The degradation product title compound Example 25 was isolated by column chromatography (RediSep Column: Silica 80 g, eluent DCM:MeOH 100:0 to 90:10). The product containing fractions were combined and concentrated under reduced pressure to give a yellow foam. This foam was further purified by chiral SFC (instrument: Waters Prep SFC100-MS; column: Chiralpak IB-N 250 mm×30 mm 5 μm; eluent: A: 55% MeOH+0.1% NH3, B: 45% scCO2; flow rate: 78.0 mL/min; detection: DAD; injection volume: 1.1 mL; gradient: isocratic A: 55%, B: 45%).
smiles,measurement,value
"Cc1ncnc(C(=O)N2CCN(c3c4n(c5nc(C6=CCOCC6)nn5c3=O)[C@@H](C(=O)Nc3ccc(C(F)(F)F)cc3Cl)C[C@H]4C)[C@H]3CC[C@@H]32)c1O [Example 21A, (7R,9R)—N-(2-chloro-4-(trifluoromethyl)phenyl)-2-(3,6-dihydro-2H-pyran-4-yl)-6-((1S,6S)-5-(5-hydroxy-6-methylpyrimidine-4-carbonyl)-2,5-diazabicyclo[4.2.0]octan-2-yl)-7-methyl-5-oxo-5,7,8,9-tetrahydropyrrolo[1,2-c][1,2,4]triazolo[1,5-a]pyrimidine-9-carboxamide]",purity after storage,86%
